The results in this text go back to article PMC9737981, “Molecular Hybridization Strategy on the Design, Synthesis, and Structural Characterization of Ferrocene-N-acyl Hydrazones as Immunomodulatory Agents” (Molecules, 2022).

Structures are written as SMILES.

Data set [1] concerns carrageenan-induced acute peritonitis. Briefly: Carrageenan-induced acute peritonitis (neutrophil migration). The following applies: 100 mg/kg orally 24 and 1 h before carrageenan; compared to vehicle. The data set is classed as in vivo, BALB/c mice. The protocol: Next, animals were challenged with a 250 μL injection of carrageenan (1 mg/mL; intraperitoneal route). After 4 h, animals were euthanized and peritoneal exudates were harvested by peritoneal lavage using 2.5 mL of saline solution. Cells were centrifuged at 400× g for 10 min, at 4 °C. The pellet was resuspended in saline (1 mL). Total leukocytes in the peritoneal fluid were determined in a Neubauer chamber after dilution in Trypan blue stain. Differential counting of neutrophils was carried out in rapid panotype-stained cytospin preparations. A differential count of 300 cells was made in a blinded fashion and according to standard morphologic criteria.

A further data set deals with IL-4. Briefly: IL-4 production by splenocytes stimulated with concanavalin A (ELISA). The following applies: 10, 20, 40 µM; Con A 5 µg/mL; 24 h. The data set is classed as cell-based, BALB/c mice. The protocol: (§1) BALB/c splenocyte suspensions were prepared in a DMEM medium supplemented with FBS and gentamicin. Splenocytes (5 × 10^6 cells/well) were plated in 24-well plates, in triplicate, and stimulated or not with concanavalin A (Con A; 5 µg/mL, Sigma-Aldrich). To evaluate lymphocyte function, splenocytes were activated in the absence or presence of various concentrations of SintMed149 and SintMed150 (10, 20, and 40 µM). After 24 h of treatment, cell-free supernatants were collected and kept at −80 °C until use.
(§2) The dosage of cytokines IFN-γ, IL-1β, IL-2, IL-4, and TNFα was performed from the supernatant of peritoneal macrophages or splenocytes were determined by enzyme-linked immunosorbent assay (ELISA), using DuoSet kits from R&D Systems, according to the manufacturer’s instructions. Nitric oxide production was estimated in macrophage culture supernatants harvested at 24 h using the Griess method for nitrite quantification.

The next data set concerns nitric oxide production. The experiment in a line: Inhibition of nitric oxide (nitrite) production in J774 macrophages stimulated with LPS + IFN-γ (Griess). The data set is classed as cell-based. As to conditions: 24 h incubation with compounds and LPS plus IFN-γ. The procedure: (§3) Immortalized J774 macrophages (2 × 10^5 cells/well) or peritoneal macrophages (2 × 10^5 cells/well) were incubated in 96-well plates in a DMEM medium supplemented with 10% FBS and 50 µg/mL of gentamicin, in triplicate, stimulated or not with LPS (500 ng/mL) and IFN-γ (5 ng/mL), and treated or not with different concentrations of the evaluated ferrocenyl-N-acyl hydrazones. The cells were incubated for 4 or 24 h at 37 °C and 5% CO2. Cell-free supernatants were collected after 4 h (for TNFα measurement) and 24 h (for IL-1β, TNFα, and nitrite quantifications), and kept at −80 °C until use.
as §2
(The Griess reaction detects nitrite, a stable product of nitric oxide.)

Data set [2] relates to LPS-induced endotoxic shock. The experiment in a line: LPS-induced endotoxin shock (survival). The data set is classed as in vivo, BALB/c mice. The procedure:
Groups of five male BALB/c mice (4 weeks of age) were used for the LPS lethality assays. Mice were treated with different doses of SintMed150 (50 or 100 mg/kg), dexamethasone (25 mg/kg), or vehicle (solution containing 30% sorbitol, 10% Tween 80, and 60% saline), by intraperitoneal (i.p.) route. Ninety minutes later, animals were challenged with 600 µg of LPS (from serotype 0111:B4 Escherichia coli, Sigma-Aldrich) in saline, by i.p. route. The survival rate was then monitored daily during 4 days.

Another data set concerns nitrite production. Briefly: Nitrite production by activated peritoneal macrophages (Griess). The data set is classed as cell-based, BALB/c mice. As to conditions: 10, 20 and 40 µM; LPS + IFN-γ; p < 0.05. The protocol:
as §3, §2

The test system of the next data set is TNFα. Briefly: TNFα production by peritoneal macrophages stimulated with LPS + IFN-γ (ELISA). The data set is classed as cell-based, BALB/c mice. As to conditions: 10, 20 and 40 µM, 4 h, p < 0.05. The protocol: as §3, §2
The nature of data set [3]: Acute toxicity in mice (single oral dose). The data set is classed as in vivo, BALB/c mice. The following applies: for Changes in the eyes / Changes in the fur / Changes in the skin / Coma / Convulsions / Diarrhea / Lethargy / Salivation / Sleep / Tremors: observed daily for 14 days; for Mortality or signs of toxicity: 2 weeks. The protocol:
Male BALB/c mice (6–8 weeks of age; n = 6/group) were randomized into three groups and treated orally with a single dose of SintMed150 (50 or 100 mg/kg) or vehicle (solution containing 30% sorbitol, 10 % Tween 80, and 60% saline). Animals were monitored for signs of general toxicity for 2 weeks after treatment. Observations involved changes in eyes, fur, and skin, and the occurrence of tremors, salivation, convulsions, diarrhea, sleep, lethargy, and coma. Body weights were taken and recorded at days 0, 7, and 14.

A further data set concerns peritoneal macrophages. Briefly: Cytotoxicity to peritoneal macrophages activated with LPS + IFNγ (Alamar Blue). The data set is classed as cell-based, BALB/c mice. The following applies: all concentrations tested (10, 20, 40 µM). The procedure:
The second set of experiments was performed using peritoneal macrophages activated with LPS (500 ng/mL, Sigma-Aldrich) and IFNγ (5 ng/mL; Sigma-Aldrich).
Peritoneal exudate macrophages were obtained by washing, with a cold DMEM medium, the peritoneal cavity of BALB/c mice 4–5 days after injection of 3% thioglycolate (Sigma-Aldrich) in saline (1.5 mL per mouse). Cells were seeded into 96-well plates at a cell density of 1 × 10^5 cells/well in a DMEM medium supplemented with 10% FBS and 50 µg/mL of gentamicin and incubated for 24 h at 37 °C and 5% CO2. […] At the end of treatment, 20 µL/well of Alamar Blue (Invitrogen) were added to the plates for 10 h. Colorimetric readings were performed at 570 and 600 nm using a SpectraMax 190 Microplate Reader (Molecular Devices, Sunnyvale, CA, USA).
(In general: Alamar Blue is a resazurin reagent that responds to reducing activity.)

Another data set concerns IL-2. Briefly: IL-2 production by splenocytes stimulated with concanavalin A (ELISA). The data set is classed as cell-based, BALB/c mice. The following applies: 10, 20, 40 µM; Con A 5 µg/mL; 24 h. The protocol:
as §1, §2
(An ELISA detects its analyte on a solid surface through an enzyme-linked reagent.)

The subject of another data set is IFN-γ. Briefly: IFN-γ production by splenocytes stimulated with concanavalin A (ELISA). The data set is classed as cell-based, BALB/c mice. The following applies: 10, 20, 40 µM; Con A 5 µg/mL; 24 h. The protocol:
as §1, §2

The next data set deals with J774 macrophages. Briefly: Cytotoxicity to J774 macrophages (Alamar Blue). The data set is classed as cell-based. As to conditions: 72 h, read-out: CC50 (µM) JJ74. The procedure: (§4) J774 macrophages were seeded into 96-well plates at a cell density of 1 × 10^4 cells/well in a DMEM medium supplemented with 10% fetal bovine serum (FBS; GIBCO) and 50 µg/mL of gentamicin (Life Technologies, Carlsbad, CA, USA) and incubated for 24 h at 37 °C and 5% CO2. After that time, each compound was added in six concentrations (50–1.56 µM), in triplicate, and incubated for 72 h. At the end of treatment, 20 µL/well of Alamar Blue (Invitrogen) was added to the plates for 4 h. […]
(§5) As a positive control, gentian violet was used at concentrations ranging from 0.04 to 10 µM. CC50 values were calculated using data from three independent experiments.
(§6) To determine the cytotoxicity concentration of 50% of J774 macrophages (CC50), we used non-linear regression. One-way analysis of variance and Newman–Keuls multiple comparison tests were employed by using Graph Pad Prism version 8.0.1 (Graph Pad Software; San Diego, CA, USA). Differences were considered significant when the values of p were < 0.05. The data are representative of at least two or three experiments.

Another data set relates to IL-1β. Briefly: IL-1β production by peritoneal macrophages stimulated with LPS + IFN-γ (ELISA). The following applies: 10, 20 and 40 µM, 24 h, p < 0.05. The data set is classed as cell-based, BALB/c mice. The procedure: as §3, §2
A short description of data set [4]: Cytotoxicity to J774 macrophages (Alamar Blue). The data set is classed as cell-based. The following applies: mouse, read-out: CC50 (µM) JJ74. The procedure: as §4, §5, §6

Consider `O=C(N/N=C/[c-]1cccc1)c1ccccc1Oc1ccccc1.[Fe+2].c1cc[cH-]c1` [SintMed150, (E)-N′-(Ferrocenylmethylidene)-2-phenoxybenzohydrazide], for which the “Reduction in neutrophil migration” value in [1] was determined as 44.6%. For the same compound, the IL-4 levels result with IL-4 is on record as “did not significantly reduce”. For the same compound, in the data set on nitric oxide production, the “Inhibition of NO (%) Production at 40 μM” value is 74.2 (±0.7) %. For the same compound, in data set [2] (50 mg/kg, third day after lethal LPS), the Survival result was “already died”. This compound also gave a Survival in data set [2] (100 mg/kg, fourth day after lethal LPS, p < 0.05) of 20%. Moreover, the “Survival time in comparison with the vehicle group” value in data set [2] (50 or 100 mg/kg, lethal LPS) is given as “longer survival time”. The Nitrite production result with nitrite production was “inhibited, in a concentration-dependent manner”. In addition, the TNF production result in the data set with TNFα was “inhibitory effect”. In addition, in [3] (50 mg/kg single oral dose), the “Changes in the eyes” value is given as “No changes”, the “Changes in the fur” value is on record as “No changes”, the “Changes in the skin” value is on record as “No changes” and the Coma entry is on record as “Absent”. Moreover, in data set [3] (50 mg/kg single oral dose), the Convulsions entry is recorded as “Absent”, the Diarrhea result was “Absent”, the Lethargy entry is listed as “Absent” and the Salivation result is “Absent”. Besides, in [3] (50 mg/kg single oral dose), the Sleep entry is recorded as “Usual” and the Tremors result was “Absent”. Also, in [3] (50 mg/kg, day 0), the Body weight is recorded as 20.9 (±1.1). The Body weight in [3] (50 mg/kg, day 7) is 21.1 (±1.1). In addition, in [3] (50 mg/kg, day 14), the Body weight was 21.7 (±0.9). Besides, in [3] (100 mg/kg single oral dose), the “Changes in the eyes” value is “No changes”, the “Changes in the fur” value is “No changes”, the “Changes in the skin” value was “No changes” and the Coma result is on record as “Absent”. Besides, in data set [3] (100 mg/kg single oral dose), the Convulsions result was “Absent”, the Diarrhea entry is recorded as “Absent”, the Lethargy result is given as “Absent” and the Salivation result is “Absent”. In addition, in data set [3] (100 mg/kg single oral dose), the Sleep result was “Usual” and the Tremors result is on record as “Absent”. The Body weight in [3] (100 mg/kg, day 0) is 20.1 (±0.8). In [3] (100 mg/kg, day 7), the Body weight is listed as 20.4 (±0.7). Further, the Body weight in data set [3] (100 mg/kg, day 14) was 21.0 (±0.7). Besides, the “Mortality or signs of toxicity” value in data set [3] (single oral dose 50 mg/kg) is “did not cause mortality or the appearance of any sign of toxicity”. Besides, the “Mortality or signs of toxicity” value in [3] (single oral dose 100 mg/kg) is “did not cause mortality or the appearance of any sign of toxicity”. In [3] (single oral dose 50 or 100 mg/kg), the “Body weight compared to vehicle-treated mice” value is given as “no difference in body weight”. Moreover, in the data set with peritoneal macrophages, the “Cytotoxicity (cell viability) in peritoneal macrophages” value is “not cytotoxic”. Besides, the IL-2 levels result in the data set on IL-2 is “significant and concentration-dependent reduction”. Further, the IFN-γ levels entry with IFN-γ is “performed the same feat”. In addition, the CC50 (commonly the concentration giving 50% cytotoxicity) in the data set on J774 macrophages was greater than 50 µM. In addition, the IL-1β production result with IL-1β is reported as “inhibitory effect”.

Turning to `CN(C)c1ccc(C(=C2C=CC(=[N+](C)C)C=C2)c2ccc(N(C)C)cc2)cc1` [GV, gentian violet, reference compound], in data set [4], the CC50 at 72 h was determined as 0.8 µM.
